Laboratory results as given in patent US20220322673A1, “Novel Agrochemical Combinations” (UPL LIMITED, priority 2019, published 2022).
Read-outs that look alike come from different tables or passages of the source.

Legend:
Assay type in all cases: in vivo
[1] = tested on: Corn FAW (Spodoptera frugiperda); details: for Percent control (%) A01: A01 = 1 day after first spray; for Percent control (%) A14: A14 = 14 days after 1st spray; for Percent control (%) B03: B03 = 3 days after 2nd spray; for Percent control (%) B07: B07 (after 2nd spray); for Percent control (%) B10: B10 (after 2nd spray); for Percent control (%) B21: B21 (after 2nd spray)
Excerpt: Application method: Two applications (application A and B) within an interval of 14 days. A01=1 day after first spray, A14=14 days after 1st spray, B03=3 days after 2nd spray.

[2] = tested on: Okra Jassids (Amrasca bigutulla bigutulla); details: for Percent control (%) of Okra Jassids, Nymphs + Adults, A01: A01 = 1 day after first spray; for Percent control (%) of Okra Jassids, Nymphs + Adults, A10: A10 (after 1st spray); for Percent control (%) of Okra Jassids, Nymphs + Adults, B03: B03 = 3 days after 2nd spray; for Percent control (%) of Okra Jassids, Nymphs + Adults, B07: B07 (after 2nd spray); for Percent control (%) of Okra Jassids, Nymphs + Adults, B10: B10 (after 2nd spray); for Percent control (%) of Okra Jassids, Nymphs + Adults, B14: B14 (after 2nd spray); for Percent control (%) of Okra Jassids, Nymphs + Adults, C03: C03 = 3 days after third spray; for Percent control (%) of Okra Jassids, Nymphs + Adults, C10: C10 (after third spray)
Excerpt: (§1) In this evaluation, feeding damage & insect population on Okra Leaves before and after sprays is averaged and analyzed for the test of significance. Application method: Three applications (application A, B and C) within an interval of 14 days.

[3] = tested on: Okra Aphids (Aphis gossypii); details: for Percent control (%) of Okra Aphids, Nymphs + Adults, A01: A01 = 1 day after first spray; for Percent control (%) of Okra Aphids, Nymphs + Adults, B03: B03 = 3 days after 2nd spray; for Percent control (%) of Okra Aphids, Nymphs + Adults, B07: B07 (after 2nd spray); for Percent control (%) of Okra Aphids, Nymphs + Adults, B10: B10 (after 2nd spray); for Percent control (%) of Okra Aphids, Nymphs + Adults, C03: C03 = 3 days after third spray; for Percent control (%) of Okra Aphids, Nymphs + Adults, C10: C10 (after third spray)
Excerpt: as §1

[4] = 25% reduced dose of insecticide, gm a.i./ha: OSA 25, CTPR 22.5, Acephate 730, Novaluron 56, Novaluron+Lambda cyhalothrin 67.5, Novaluron+Emamectin 93.5
[5] = doses gm a.i./ha: OSA 25, CTPR 30, Acephate 970, Novaluron 75, Novaluron+Lambda cyhalothrin 90, Novaluron+Emamectin 125
[6] = 25% reduced dose rate, gm a.i./ha: OSA 25, Flonicamid 75, Acephate+Imidacloprid 390, Flonicamid+Fipronil 75+37.5, Imidacloprid 18.3, Acetamiprid 11.2
[7] = doses gm a.i./ha: OSA 25, Flonicamid 100, Acephate+Imidacloprid 520, Flonicamid+Fipronil 100+50, Imidacloprid 24.5, Acetamiprid 15
[8] = reduced insecticide dose, gm a.i./ha: OSA 25, Flonicamid (Ulala) 75, Acephate+Imidacloprid 390, Flonicamid+Fipronil 75+37.5, Imidacloprid 18.3, Acetamiprid 11.2

Compound: O=C(NC(=O)c1c(F)cccc1F)Nc1ccc(OC(F)(F)C(F)OC(F)(F)F)c(Cl)c1 (racemic) [Novaluron, (±)-1-[3-chloro-4-(1,1,2-trifluoro-2-trifluoro-methoxyethoxy)phenyl]-3-(2,6-difluorobenzoyl)urea]
- Percent control (%) A01 [1, 4]: 59.3%
- Percent control (%) A01 [1, 5]: 60.5%
- Percent control (%) A14 [1, 4]: 58.7%
- Percent control (%) A14 [1, 5]: 72.5%
- Percent control (%) B03 [1, 4]: 68.9%
- Percent control (%) B03 [1, 5]: 79.9%
- Percent control (%) B07 [1, 4]: 70.1%
- Percent control (%) B07 [1, 5]: 88.8%
- Percent control (%) B10 [1, 4]: 74.6%
- Percent control (%) B10 [1, 5]: 88.9%
- Percent control (%) B21 [1, 4]: 73.9%
- Percent control (%) B21 [1, 5]: 84.7%

Compound: COP(=O)(NC(C)=O)SC (stereo not drawn) [Acephate]
- Percent control (%) A01 [1, 4]: 46.8%
- Percent control (%) A01 [1, 5]: 58.1%
- Percent control (%) A14 [1, 4]: 50.3%
- Percent control (%) A14 [1, 5]: 69.7%
- Percent control (%) B03 [1, 4]: 62.1%
- Percent control (%) B03 [1, 5]: 76.4%
- Percent control (%) B07 [1, 4]: 63.9%
- Percent control (%) B07 [1, 5]: 80.5%
- Percent control (%) B10 [1, 4]: 64.1%
- Percent control (%) B10 [1, 5]: 83.2%
- Percent control (%) B21 [1, 4]: 61.6%
- Percent control (%) B21 [1, 5]: 80.3%

Compound: CNC(=O)c1cc(Cl)cc(C)c1NC(=O)c1cc(Br)nn1-c1ncccc1Cl [CTPR, Chlorantraniliprole]
- Percent control (%) A01 [1, 4]: 57.1%
- Percent control (%) A01 [1, 5]: 67.6%
- Percent control (%) A14 [1, 4]: 66.8%
- Percent control (%) A14 [1, 5]: 75.2%
- Percent control (%) B03 [1, 4]: 75%
- Percent control (%) B03 [1, 5]: 79.9%
- Percent control (%) B07 [1, 4]: 77.2%
- Percent control (%) B07 [1, 5]: 86.8%
- Percent control (%) B10 [1, 4]: 76.2%
- Percent control (%) B10 [1, 5]: 88.9%
- Percent control (%) B21 [1, 4]: 74.6%
- Percent control (%) B21 [1, 5]: 87.0%

Compound: O=[N+]([O-])NC1=NCCN1Cc1ccc(Cl)nc1 [Imidacloprid]
- Percent control (%) of Okra Jassids, Nymphs + Adults, A01 [2, 6]: 56%
- Percent control (%) of Okra Jassids, Nymphs + Adults, A01 [2, 7]: 59.9%
- Percent control (%) of Okra Jassids, Nymphs + Adults, A10 [2, 6]: 59.1%
- Percent control (%) of Okra Jassids, Nymphs + Adults, A10 [2, 7]: 64.6%
- Percent control (%) of Okra Jassids, Nymphs + Adults, B03 [2, 6]: 61.5%
- Percent control (%) of Okra Jassids, Nymphs + Adults, B03 [2, 7]: 68.5%
- Percent control (%) of Okra Jassids, Nymphs + Adults, B07 [2, 6]: 62.5%
- Percent control (%) of Okra Jassids, Nymphs + Adults, B07 [2, 7]: 71.7%
- Percent control (%) of Okra Jassids, Nymphs + Adults, B10 [2, 6]: 63.5%
- Percent control (%) of Okra Jassids, Nymphs + Adults, B10 [2, 7]: 70.5%
- Percent control (%) of Okra Jassids, Nymphs + Adults, B14 [2, 6]: 62.4%
- Percent control (%) of Okra Jassids, Nymphs + Adults, B14 [2, 7]: 66.2%
- Percent control (%) of Okra Jassids, Nymphs + Adults, C03 [2, 6]: 64.6%
- Percent control (%) of Okra Jassids, Nymphs + Adults, C03 [2, 7]: 68.0%
- Percent control (%) of Okra Jassids, Nymphs + Adults, C10 [2, 6]: 66.1%
- Percent control (%) of Okra Jassids, Nymphs + Adults, C10 [2, 7]: 73.0%
- Percent control (%) of Okra Aphids, Nymphs + Adults, A01 [3, 7]: 66.9%
- Percent control (%) of Okra Aphids, Nymphs + Adults, A01 [3, 8]: 62.7%
- Percent control (%) of Okra Aphids, Nymphs + Adults, A10 ([3]; A10 (after 1st spray), doses gm a.i./ha: OSA 25, Flonicamid 100, Acephate+Imidacloprid 520, Flonicamid+Fipronil 100+50, Imidacloprid 24.5, Acetamiprid 15): 82%
- Percent control (%) of Okra Aphids, Nymphs + Adults, A14 ([3]; A14 = 14 days after 1st spray, reduced insecticide dose, gm a.i./ha: OSA 25, Flonicamid (Ulala) 75, Acephate+Imidacloprid 390, Flonicamid+Fipronil 75+37.5, Imidacloprid 18.3, Acetamiprid 11.2): 64.3%
- Percent control (%) of Okra Aphids, Nymphs + Adults, B03 [3, 7]: 80.7%
- Percent control (%) of Okra Aphids, Nymphs + Adults, B03 [3, 8]: 74.4%
- Percent control (%) of Okra Aphids, Nymphs + Adults, B07 [3, 7]: 82.7%
- Percent control (%) of Okra Aphids, Nymphs + Adults, B07 [3, 8]: 77.2%
- Percent control (%) of Okra Aphids, Nymphs + Adults, B10 [3, 7]: 82.2%
- Percent control (%) of Okra Aphids, Nymphs + Adults, B10 [3, 8]: 79.1%
- Percent control (%) of Okra Aphids, Nymphs + Adults, C03 [3, 7]: 81.3%
- Percent control (%) of Okra Aphids, Nymphs + Adults, C03 [3, 8]: 75.4%
- Percent control (%) of Okra Aphids, Nymphs + Adults, C10 [3, 7]: 82.6%
- Percent control (%) of Okra Aphids, Nymphs + Adults, C10 [3, 8]: 78%
